Entries after “also recorded” stand apart in the source; their conditions may differ.
Columns and labels:
[1] = tested on: CD40-induced NF-κB reporter gene activity; assay: NF-κB reporter in HEK293-NF-κB-luc cells over-expressing CD40; type: cell-based; details: CID-2858522 4 μM, IKK inhibitor 10 μM, PKC inhibitor 1 μM
Procedure: FIGS. 3 (A-F) HEK293-NF-κB-luc cells were pretreated with CID-2858522 (4 μM), IKK inhibitor, BMS-335541 (10 μM), or PKC inhibitor, Bisindolylmaleimide I (1 μM) for 2 hrs and then transfected with plasmids encoding CD4/TLR4 (A), CD40 (B), NOD1 (C), NOD2 (D), cIAP2-MALT1 (E), or XIAP and TAB (F), or pcDNA as control (compounds were not removed). After 48 hrs, luciferase activity was measured expressing data as fold increase relative to unstimulated cells (mean±SD; n=3). (G-H) HEK293-NF-κB-luc cells were pretreated with CID-2858522 (4 μM), or IKK inhibitor, BMS-335541 (10 μM) for 2 hrs and then cultured with 2 μM doxorubicin (G) or 16 μM retinoic acid (H). After 48 hrs, luciferase activity was measured as above.
Counter Screening and Secondary Assays. To counter-screen for inhibitors of the TNF pathway, HEK293-NFκB-Luc cells were seeded at 10^5 cells per well in 90 μL medium in white 96-well plates (Greiner Bio-One) and cultured overnight, before adding compounds (5 μL in medium) to cells. After 2 h incubation, 5 μL TNF (200 ng/mL) (R&D Systems) was added (final concentration 10 ng/mL) and cells were incubated for 16 h. Luciferase activity was measured using Britelite kit (Perkin Elmer). To counter-screen for inhibitors of NF-κB induced by TLR4, CD40, NOD1, NOD2, cIAP2/MALT, or XIAP/TAB, the 293-NF-κB-luc cells cultured in 96 well plates as above were pretreated with compounds for 2 h and then transfected using Lipofectamine 2000 with various plasmids including pcDNA3 (“empty vector” control) or plasmids encoding CD4-TLR4, CD40, NOD1, NOD2, cIAP2/MALT, XIAP/TAB, using 0.2 μL of transfection reagent containing 100 ng DNA per well. Cells were cultured in medium containing CID-2858522 or other compounds and luciferase activity was measured 48 h later. […] Reactions were then initiated by addition of 50 μL 160 nM ATP (Sigma) in PBS and luciferase activity was measured 2 h later using a luminometer (LJL Biosystems, Sunnyvale, Calif.).

[2] = tested on: anti-CD3/CD28-induced IL-2 production; assay: IL-2 production by anti-CD3/CD28-stimulated Jurkat T cells (ELISA); type: cell-based, human; details: for suppression of IL-2 production: anti-CD3/CD28 Jurkat, IKK inhibitor ≦10 μM, PKC inhibitor <0.5 μM
Procedure: (§1) FIG. 4A: Jurkat T cells were treated by anti-cd3/anti-cd28/anti-mouse IgG (6 μg/mL) or PMA/Ion (10 ng/mL) for 24 h, IL-2 production in medium was measured by ELISA kit. FIG. 4B-E: Jurkat T cells were pretreated by IKK inhibitor (B), PKC inhibitor (C), CID-2858522 (D) for 2 h and then treated by anti-cd3/anti-cd28/anti-mouse IgG (6 μg/mL) or PMA/Ion (10 ng/mL) for 24 h, IL-2 production in medium was measured by ELISA kit; E, Jurkat cells were treated by CID-2858522, PKC inhibitor and IKK inhibitor for 24 h, cell viability was measured by ATPlite kit.
(§2) In T cells, the antigen receptor stimulates several signal transduction pathways that converge on the IL-2 gene promoter, including NF-κB, NF-AT, and AP-1. For evaluating the effects of CID-2858522 on TCR-initiated, NF-κB-driven events in lymphocytes, we employed Jurkat T-leukemia cells, which have been utilized extensively as model for studying TCR-signaling leading to IL-2 gene expression. For these experiments, Jurkat cells were stimulated with either anti-CD3 (to activate the TCR complex) and anti-CD28 (co-stimulator) or with PMA/Ionomycin, in the presence or absence of CID-2858522, IKK inhibitor, or PKC inhibitor, then IL-2 production was measured 24 hrs later in culture supernatants. […] In contrast, CID-2858522 suppressed IL-2 production by CD3/CD28- and PMA/Ionomycin-stimulated Jurkat cells by approximately half (IC50) at concentrations <10 μM (FIG. 4D).
(§3) Lymphokine measurements. Human IL-2 or IL-8 levels in culture medium were measured by Enzyme-Linked Immunosorbent Assays (ELISAs), using BD OptEIA ELISAs (BD Biosciences, San Diego, Calif.), according to the manufacturer's protocol, using 96-well ELISA plates (BD Biosciences) and measuring absorbance within 30 minutes of initiating reactions using a SpectraMax 190 spectrophotometer (Molecular Devices).

[3] = tested on: PMA/Ionomycin-induced IL-2 production; assay: IL-2 production by PMA/Ionomycin-stimulated Jurkat T cells (ELISA); type: cell-based, human
Procedure: as §1, §2, §3

Jurkat cells = assay: Jurkat cell viability (ATPlite); type: cell-based; details: 24 h
Procedure: as §1
Cell viability assay. Cell viability was estimated based on cellular ATP levels, measured using ATPlite kit (Perkin Elmer). Cells at a density of 10^5/mL were seeded at 90 μL per well in 96-well white plates and cultured overnight. Compounds were added (5 μL in medium) to wells and cells were cultured for […], Finally, 50 μL ATPlite solution was added to each well and luminescence activity was read using a luminometer (LJL Biosystems, Sunnyvale, Calif.).

For CN(C)CCCn1cc(C2=C(c3c[nH]c4ccccc34)C(=O)NC2=O)c2ccccc21 [Bisindolylmaleimide I, reference compound], the “suppression of CD40-induced NF-κB reporter” value [1] was “not by CID-2858522 or by the PKC inhibitor”, the “suppression of IL-2 production” value [2] was 80-90% and the “suppression of IL-2 production” value ([3]; PMA/Ionomycin Jurkat, PKC inhibitor <0.5 μM) was 80-90%. For the same compound, the “cytotoxicity to Jurkat cells” value (Jurkat cells) was “not due to cytotoxicity”.

Cc1cc2nc(NCCCO)n(CC(=O)c3cc(C(C)(C)C)c(O)c(C(C)(C)C)c3)c2cc1C [Compound 1, 2-(2-(3-Hydroxypropylamino)-5,6-dimethyl-1H-benzo[d]imidazol-1-yl)-1-(3,5-di-tert-butyl-4-hydroxyphenyl)ethanone] was tested, and the “suppression of CD40-induced NF-κB reporter” value [1] was “did not inhibit; also recorded: not by CID-2858522”, the IC50 ([2]; Homo sapiens, CD3/CD28-stimulated Jurkat cells, 24 h, read-out: IC50, suppression of IL-2 production (by approximately half)) was under 10 µM and the IC50 ([3]; Homo sapiens, PMA/Ionomycin-stimulated Jurkat cells, 24 h, read-out: IC50, suppression of IL-2 production (by approximately half)) was under 10 µM. The “cytotoxicity to Jurkat cells” value (Jurkat cells) was “not due to cytotoxicity”.

For Cc1ccc2nc(NCCN)c3ncc(C)n3c2c1 [BMS-345541, reference compound], the “suppression of CD40-induced NF-κB reporter” value [1] was “potently suppressed”, the “suppression of IL-2 production” value [2] was 90% and the “suppression of PMA/Ionomycin-induced IL-2 production” value ([3]; Jurkat) was “partially suppressed”. The “cytotoxicity to Jurkat cells” value (Jurkat cells) was “not due to cytotoxicity”.
